Source: patent publication US11135290B2, “Fucosyllactose as breast milk identical non-digestible oligosaccharide with new functional benefit” (N.V. Nutricia, priority 2009, dated 2021)
Marks after values point to notes of the source that are not given here.

What was measured:
Assay type in all cases: in vivo, C57BL/6 mice
DTH response = DTH response after Influvac vaccination; conditions: dietary supplementation, vaccinated mice; TH1-dependent parameter
Protocol: (§1) 6-8 Weeks old female C57BL/6 mice (Charles River) received semi-purified AIN-93G-based diets (Research Diet Service, Wijk bij Duurstede, the Netherlands), comprising
(§2) All groups were compared to the unsupplemented control diet. Dietary supplementation started 14 days before the first vaccination and lasted until the end of the experiment, 31 days after the first vaccination.
Vaccination experiments were performed using Influvac (Solvay Pharmaceuticals, Weesp, the Netherlands) from season 2005/2006. The mice received a primary vaccination and a booster vaccination, consisting of a subcutaneous (sc) injection of a 1:1 mix of vaccine and adjuvant in a total volume of 100 μl. The booster vaccination was given at 21 days after the primary vaccination. The experiments ended 10 days after booster vaccination. Blood samples were taken at the end of the experiment. […] The percentage of specific ^51Cr release was calculated as the percentage of specific lysis=(experimental release−spontaneous release)/(total detergent release−spontaneous release)×100. […]
(§3) Statistical analysis was performed using GraphPadPrism software. Statistical differences between test and control groups were analysed by ANOVA and post hoc Dunnett's test if multiple groups were compared to a single (control) group. […]

YAC-1 target cells = test: NK cell cytotoxicity in spleen cell suspensions, 51Cr release assay; conditions: mouse splenocytes, dietary supplementation
Excerpt: as §1
1) 2 wt % beta-galacto-oligosaccharide (GOS; source Vivinal GOS, Borculo Domo), fructo-oligosaccharide (FOS; source RaftilineHP, Orafti) and galacturonic acid oligosaccharide (Source AOS) in a 9:1:1.1 ratio. AOS are produced from pectin (Stidzucker AG, Mannheim, Germany), with a DP of 1-20. It consists of approximately 75% galacturonic acid oligomers, based on total weight;
2) 1 wt % lactoneotetraose (LNnT),
3) 1 wt % 3′-sialyl lactose (3′-SL), or
4) 1 wt % 2′-fucosyllactose (2′-FL).
as §2
Vaccination experiments were performed using Influvac (Solvay Pharmaceuticals, Weesp, the Netherlands) from season 2005/2006. […] The percentage of specific ^51Cr release was calculated as the percentage of specific lysis=(experimental release−spontaneous release)/(total detergent release−spontaneous release)×100. […]
as §3

[1] = tested on: regulatory T cells (Treg); test: Percentage of regulatory T cells (Treg) by flow cytometry; conditions: dietary supplementation, vaccinated mice
Protocol: All groups were compared to the unsupplemented control diet. Dietary supplementation started 14 days before the first vaccination and lasted until the end of the experiment, 31 days after the first vaccination. […]
The percentage of regulatory T cells (Treg) was determined by flow cytometry (FACSCalibur) using allophycocyanin (APC-)labelled anti-mouse CD3 mAb, Pe-Cy5-labeled anti-mouse CD4 mAb and phycoerythrin (PE)-labelled anti-mouse CD25 mAb in combination with intracellular staining of fluorescein-isotiocyanate (FITC)-labelled Foxp3 mAb, according to the instructions offered by the manufactures (eBiosciences, San Diego, Calif.).

Molecule | DTH response compared with control-fed animals (DTH response) | NK cell activity, % lysis At E:T ratio 1:50 (YAC-1 target cells) [% lysis] | Treg percentage (s.e.m.) [1]
CC(=O)N[C@H]1[C@H]([C@H](O)[C@H](O)CO)O[C@@](O[C@H]2[C@@H](O)[C@@H](CO)O[C@@H](O[C@H]3[C@H](O)[C@@H](O)C(O)O[C@@H]3CO)[C@@H]2O)(C(=O)O)C[C@@H]1O (stereo partly drawn) [3′-SL, 3′-sialyl lactose] | significant increase | 1.93 | 2.8 (0.2)* percentage
lactoneotetraose [LNnT] | significant increase | 2.14 | 3.2 (0.2) percentage
